Laboratory results taken from PubChem BioAssay AID720570 (Broad Institute, 2013).
Active and inactive are the calls of the source.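 How the source made its calls: active means cell-killing curve crosses a set limit at a concentration no more than twice the top valid dose; inconclusive means flat curve with a 30 to 70% loss, or a poor fit; inactive means signal rising instead of falling, and the rest.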

Assay: cytotoxicity in EWS/Fli1-dependent TC71 cells – cell-based, luminescence, cherry-picked samples, retest, confirmation (AID 720570)
Settings: TC71 Ewing sarcoma viability, CellTiter-Glo ATP, 72 h; at 26 µM (top of the series)

Row | Compound | activity change, negative = cytotoxicity
1 | Cc1ccc(/C=C/C(=O)N2CCN(S(=O)(=O)c3c(C)c(C)cc(C)c3C)CC2)o1 | -5.96% (inactive)
2 | Cc1cc(Br)ccc1N=C1C(=O)Nc2ccccc21 | 6.85% (inactive)
3 | Cc1ccc(-c2ccc3c(c2)O[C@@H](CN(C)C(=O)Nc2ccc(F)cc2)[C@H](C)CN([C@@H](C)CO)S3(=O)=O)cc1 | -12.5% (inactive)
4 | CCCc1nc2ccc(NC(=O)c3cccs3)cc2c(=O)n1Cc1ccccc1Cl | 2.97% (inactive)
5 | CCOc1cc(N2CCC(O)CC2)ccc1Nc1ncc2c(n1)N(C)c1ccccc1C(=O)N2C | -28.3% (inactive)
6 | C=CC[n+]1c(-c2ccc(C)cc2)csc1Nc1ccc(NC(C)=O)cc1 | 0.856% (inactive)
7 | O=C(CN1C(=O)C(=O)c2ccccc21)c1ccc(Cl)cc1 | -1.64% (inactive)
8 | C[C@@H]1CN([C@H](C)CO)C(=O)c2cc(NC(=O)Nc3ccccc3)ccc2O[C@@H]1CN(C)Cc1ccc(C(=O)Nc2ccccc2N)cc1 | -33.9% (inactive)
9 | CCN(CC)C(=O)CN1C(=O)C(=O)c2ccccc21 | 6.39% (inactive)
10 | Brc1ccc(CSc2nnc(-c3ccco3)o2)cc1 | 9.85% (inactive)
11 | COC(=O)C[C@@H]1CC[C@@H]2[C@H](COc3ccc(NC(=O)Nc4cccc(Cl)c4)cc3C(=O)N2C)O1 | -5.82% (inactive)
12 | Cc1ccc(NC(=O)COC(=O)c2ccc3c(c2)OCO3)cc1S(=O)(=O)N1CCCCC1 | 10.2% (inactive)
13 | O=C1NC(=O)N(CCc2ccc(F)cc2)C(=O)/C1=C/C=C/c1ccccc1 | 11.3% (inactive)
14 | COCCCNc1ccn2nc(-c3ccccc3)cc2n1 | -3.56% (inactive)
15 | COC(=O)Cc1[nH]n(-c2nc3ccccc3s2)c(=O)c1C(C)=Nc1ccc(C)cc1 | -7.01% (inactive)
16 | CC(C)CC(NC(=O)c1cccs1)c1nnc(SCc2ccc(Cl)c(Cl)c2)n1C (stereo not given) | -10% (inactive)
17 | COC(=O)C[C@H]1CC[C@H]2[C@H](COc3ccc(NC(=O)Nc4cccc(Cl)c4)cc3C(=O)N2C)O1 | -2.79% (inactive)
18 | Cc1cc(C(=O)CN2C(=O)c3ccccc3S2(=O)=O)c(C)n1C(C)C | 3.94% (inactive)
19 | CC(=O)Nc1ccc(S(=O)(=O)Nc2ccc(N3CCCCC3)cc2)cc1 | -4.73% (inactive)
20 | O=C(NCCc1ccccc1)c1ccccc1NC(=O)C1CCCO1 (stereo not given) | -0.496% (inactive)
21 | Cc1ccsc1/C=N/Nc1ccc(C(=O)O)cc1 | -11.1% (inactive)
22 | CC(=O)c1ccc(NC(=O)c2noc3c2CCC3)cc1 | -19.5% (inactive)
23 | C[C@@H]1CN([C@@H](C)CO)C(=O)Cc2cc(NC(=O)Cn3cnnn3)ccc2O[C@@H]1CN(C)Cc1ccc(Oc2ccccc2)cc1 | 21.2% (inactive)
24 | COc1ccccc1CNC(=O)C[C@@H]1CC[C@H]2[C@@H](COC[C@H](O)CN2C(=O)Nc2ccc(C(F)(F)F)cc2)O1 | -18.3% (inactive)
25 | Cc1ccc(C(=O)CN2C(=O)c3ccccc3S2(=O)=O)cc1 | 1.85% (inactive)
26 | COCc1cc(C)nc2sc(C(=O)NCCO)c(-n3cccc3)c12 | 3.9% (inactive)
27 | COc1ccccc1N(/N=C1\Sc2ccccc2C1=O)C(C)=O | -15.8% (inactive)
28 | CC(C)(C)c1ccc(Oc2ccc(NC(=O)C3CC=CCC3C(=O)O)cc2)cc1 (stereo not given) | -20.1% (inactive)
29 | Cc1c(N=Cc2cc(Br)cc(Br)c2O)cccc1C(=O)O | 25.2% (inactive)
30 | COC(=O)C(CC#Cc1ccc2c(c1)[C@]1(C(=O)N2)[C@H](c2ccc(OCCO)cc2)N2[C@H](c3ccccc3)[C@H](c3ccccc3)OC(=O)[C@H]2[C@@H]1C(=O)N1CCN(c2ncccn2)CC1)C(=O)OC | 3.63% (inactive)
